These results are taken from patent US7476673B2, “Disubstituted chalcone oximes as selective agonists of RARγ retinoid receptors” (Allergan, Inc., priority 2003, dated 2009).

The structures appear in SMILES notation.

The subject of this assay is RARγ. In words: chimeric receptor transactivation assay, RARγ. The following applies: judged from Table 1 data, versus RARα and RARβ. In kind it is cell-based. Summed up: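 Chimeric receptor transactivation assay for agonist-like activity at each RAR subtype, per U.S. Pat. No. 5,455,265. Results as EC50; efficacy as percentage of maximum relative to standard TTNPB.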

As to `COc1cc2c(cc1C(/C=C\c1ccc(C(=O)O)cc1)=NO)C(C)(C)CCC2(C)C` [Compound 13b, Z-4-[3-hydroxyimino-3-(3-methoxy-5,5,8,8-tetramethyl-5,6,7,8-tetrahydro-naphthalen-2-yl)-propenyl]-benzoic acid], the “selectivity to the RARγ receptors” value is listed as “less selective”.
